Measurements: ChEMBL document CHEMBL1148123, “New diterpenes and norditerpenes from the fruits of Vitex rotundifolia” (2002)
Values after ≈ are worked out from the molar mass of the structure shown.

Columns and labels:
PC-12 = test: Cytotoxicity against rat PC12 cells assessed as growth inhibition after 72 hrs by MTT assay; assay type: functional; conditions: PC-12, 72 h
HCT-116 = test: Cytotoxicity against human HCT116 cells assessed as growth inhibition after 72 hrs by MTT assay; assay type: functional; conditions: HCT-116, 72 h

Compound | GI50 (PC-12) [µg/mL] | GI50 (HCT-116) [µg/mL]
CC(=O)O[C@@H]1C[C@@H](C)[C@]2(CCC(=O)O2)[C@@]2(C)CCCC(C)(C)[C@H]12 | > 5 | > 5
COc1ccc([C@@H]2CC(=O)c3c(cc(OC)c(OC)c3O)O2)cc1O | 2.27 (≈ 6.55 µM) | 2.87 (≈ 8.29 µM)
CO[C@H]1C[C@@]2(CC[C@@]3(O2)[C@H](C)C[C@@H](OC(C)=O)[C@H]2C(C)(C)CCC[C@@]23C)[C@H](OC)O1 (relative stereo) | > 5 | > 5
COc1ccc(-c2oc3cc(OC)c(OC)c(O)c3c(=O)c2OC)cc1OC [ARTEMETIN] | 2.27 (≈ 5.84 µM) | 2.2 (≈ 5.66 µM)
COc1ccc(-c2oc3cc(OC)c(OC)c(O)c3c(=O)c2OC)cc1O [CASTICIN] | 0.114 (≈ 0.305 µM) | 0.119 (≈ 0.318 µM)
CC(=O)O[C@@H]1C[C@@H](C)[C@](O)(CCC2=CC(=O)OC2)[C@@]2(C)CCCC(C)(C)[C@H]12 [VITEXILACTONE] | > 5 | > 5
